{"source": "patent US12414976B2", "about": "“Pharmaceutical composition for preventing hair loss or promoting hair growth, comprising ginsenoside RG4 or mixture (Rgx 365) of ginsenosides Rg2, Rg4, Rg6, and Rh1 as active ingredient” (AREZ CO., LTD., priority 2019, dated 2025)", "key": {"[1]": {"test_system": "human hair follicle dermal papilla cells", "experiment": "Formation and size of 3D spheroids (phase-contrast microscope)", "assay_type": "cell-based", "conditions": "3D culture, 48 hours", "method": "(§1) Next, for 3D spheroid culture, human hair follicle dermal papilla cells were cultured in a plate (round-bottom ultra-low attachment microplate, Corning, NY, USA) containing the stem cell medium supplemented with 5% fetal bovine serum at 37° C. under a 5% CO2 atmosphere.\nReferring to the document [Higgins, C. A. et al., Exp Dermatol., 19(6), 546-548, 2010; Higgins, C. A. et al., Proc Natl Acad Sci USA., 110(49), 19679-19688, 2013; Kang, B. M. et al., J Invest Dermatol., 132(1), 237-239, 2012], a 3D spheroid culture of human hair follicle dermal papilla cells is reported to induce better formation and growth of hair follicles, compared to a 2D culture of human hair follicle dermal papilla cells. In addition, the document [Whiting, D. A., J Am Acad Dermatol., 45(3 Suppl), S81-S86, 2001; de Lacharriere, O. et al., Arch Dermatol., 137(5), 641-646, 2001; Jahoda, C. A., Exp Dermatol., 7(5), 235-248, 1998] reports that a decrease in the size of dermal papilla may cause follicle miniaturization in patients with hair loss. The Examples of the present disclosure were examined for effects of preventing hair loss and promoting hair growth by monitoring the formation and size of 3D spheroids after application to the 3D spheroid culture of Experimental Example 1.\nFirst, the formation and size change of 3D spheroids of human hair follicle dermal papilla cells were observed. In this regard, the 3D spheroid culture of cells in Experimental Example 1 was seeded at a density of 5×10^4 cells/well into 96-well plates (96-well round-bottom ultra-low attachment microplates) and incubated for 48 hours with predetermined concentrations of Examples 1 and 2 and Comparative Example 1 (ginsenoside Rg2). Thereafter, the human dermal papilla cells were observed under a phase-contrast microscope to see whether the cells formed 3D spheroids and to measure sizes of the spheroids."}, "[2]": {"test_system": "human hair follicle dermal papilla cells", "experiment": "WST-1 cell viability assay", "assay_type": "cell-based", "conditions": "48 hours, various concentrations, vs non-treated group", "method": "With reference to the documents [Topouzi, H. et al., Exp Dermatol., 26(6), 491-496, 2017; Higgins, C. A. et al., Proc Natl Acad Sci USA., 110(49), 19679-19688, 2013; Higgins, C. A. et al., Exp Dermatol., 19(6), 546-548, 2010], human hair follicle dermal papilla (HDP) cells were incubated in a general 2D monolayer culture manner and in a 3D spheroid culture manner as in the actual human follicle structure.\nFirst, for 2D monolayer culture, human hair follicle dermal papilla cells were cultured in a mesenchymal stem cell medium (MSCM) (Innoprot, Bizakaia, Spain) supplemented with 5% fetal bovine serum (FBS, Thermo Fisher Scientific, Inc., Waltham, MA, USA) in an incubator maintaining the condition of 37° C. and 5% CO2. […]\nFirst, the human hair follicle dermal papilla cells cultured in a 2D or 3D manner in Experimental Example 1 were seeded at a density of 1×10^4 cells/well into 96-well plates (96-well round-bottom ultra-low attachment microplates) and incubated at 37° C. for 24 hours in a 5% CO2 atmosphere. […] Then, 10 μl of the WST-1 solution was added to the culture and incubated for 30 min before reading absorbance at 450 nm on an iMark microplate reader (Bio-Rad Laboratories, Hercules, CA, USA). […]"}, "ALPL": {"test_system": "ALPL", "experiment": "Real-time PCR mRNA expression, dermal papilla signature gene", "assay_type": "cell-based, human", "conditions": "3D spheroid culture, vs non-treated control", "method": "as §1\n(§2) Next, in order to confirm the luciferase activity results, mRNA analysis was performed on β-catenin, WNT5A, and LEF1, which are involved in the Wnt/β-catenin signaling. First, a 3D spheroid culture of human hair follicle dermal papilla cells was treated with Example 1 (20 μg/ml) for 48 hours, followed by RNA extraction with a TRIzol solution (Invitrogen, Thermo Fisher Scientific). From 2 μg of the RNA extract, cDNA was synthesized in the presence of M-MLV reverse transcriptase. The synthesized cDNA was mixed with HOT FIREPol EvaGreen qPCR Mix Plus solution (Solis BioDyne, Tartu, Estonia) and each of primer sets for the Wnt/β-catenin target genes β-catenin, WNT5A, and LEF1 and subjected to Step OnePlus Real-Time PCR (Applied Biosystems; Thermo Fisher Scientific). Relative to the expression of β-actin housekeeping gene, an expression level of each gene was derived. Analysis results of mRNA expressions are depicted in FIGS. 5B to 5D.\n(§3) After being applied to the 3D spheroid culture of human hair follicle dermal papilla cells in Experimental Example 1, the Examples of the present disclosure were examined for the effect of preventing hair loss and promoting hair growth by monitoring mRNA expression levels of ALPL, VCAN, BMP2, and FGF7.\n(§4) The mRNA expression analysis of ALPL, VCAN, BMP2, and FGF7 was carried out in the same manner as for β-catenin, WNT5A, and LEF1 in Experimental Example 3-2, with the exception of using primer sets for ALPL, VCAN, FGF7, and BMP2 instead of those for β-catenin, WNT5A, and LEF1. The mRNA expression analysis data are depicted in FIGS. 6 and 7."}, "BMP2": {"test_system": "BMP2", "experiment": "Real-time PCR mRNA expression, dermal papilla signature gene", "assay_type": "cell-based, human", "conditions": "3D spheroid culture, vs non-treated control", "method": "as §1, §2, §3, §4"}, "VCAN": {"test_system": "VCAN", "experiment": "Real-time PCR mRNA expression, dermal papilla signature gene", "assay_type": "cell-based, human", "conditions": "3D spheroid culture, vs non-treated control", "method": "as §1, §2, §3, §4"}, "FGF7": {"test_system": "FGF7", "experiment": "Real-time PCR mRNA expression, dermal papilla signature gene", "assay_type": "cell-based, human", "conditions": "3D spheroid culture, vs non-treated control", "method": "as §1, §2, §3, §4"}, "LEF1": {"test_system": "LEF1", "experiment": "Real-time PCR mRNA expression, Wnt/β-catenin signaling", "assay_type": "cell-based, human", "conditions": "3D spheroid culture, 20 μg/ml, 48 hours, relative to β-actin, vs non-treated group (control)", "method": "as §1, §2"}, "WNT5A": {"test_system": "WNT5A", "experiment": "Real-time PCR mRNA expression, Wnt/β-catenin signaling", "assay_type": "cell-based, human", "conditions": "3D spheroid culture, 20 μg/ml, 48 hours, relative to β-actin, vs non-treated group (control)", "method": "as §1, §2"}, "β-catenin": {"test_system": "β-catenin", "experiment": "Real-time PCR mRNA expression, Wnt/β-catenin signaling", "assay_type": "cell-based, human", "conditions": "3D spheroid culture, 20 μg/ml, 48 hours, relative to β-actin, vs non-treated group (control)", "method": "as §1, §2"}, "TCF/LEF": {"test_system": "TCF/LEF", "experiment": "TCF/LEF luciferase reporter assay (TOPFlash/FOPFlash), Wnt/β-catenin signaling", "assay_type": "cell-based", "conditions": "HEK293 cells, 20 μg/ml, 24 hours, vs non-treated group (control)", "method": "HEK293 cells were cultured in DMEM (Dulbecco's Modified Eagle's Medium, Thermo Fisher Scientific, Inc.) supplemented with 10% fetal bovine serum, penicillin (50 U/ml), and streptomycin (50 U/ml) under the condition of 37° C. and 5% CO2.\nWhether the Wnt/β-catenin signaling is activated or not was determined using a TCF/LEF luciferase reporter plasmid (TOPFlash, Merck-Millipore, Darmstadt, Germany) designed to specifically react with the transcription factor TCF/LEF activated by β-catenin, and a reporter plasmid having a mutation caused in the promoter thereof (FOPFlash, Merck-Millipore, Darmstadt, Germany).\nFirst, the TCF/LEF luciferase reporter plasmid (TOPFlash (TCF/LEF-wt) or FOPFlash (TCF/LEF-mut)) and a β-galactosidase plasmid were transfected into the HEK293 cells cultured in Experimental Example 1 with the aid of Lipofectamine 3000 (Invitrogen, Thermo Fisher Scientific, Inc.). After being incubated with 20 μg/ml of Example 1 for 24 hours, the transfected cells were lysed with a passive lysis buffer (Promega, Madison, WI, USA). The cell lysate thus formed was added with D-luciferin and measured for luciferase activity by Glomax 96 Microplate Luminometer (Turner Biosystem, Sunnyvale, CA, USA). β-Galactosidase activity was measured with the aid of Luminescent β-galactosidase Detection Kit II (Clontech Laboratories Inc., USA). […]"}}}
{"compound": "CC(C)=CC/C=C(/C)[C@H]1CC[C@]2(C)[C@@H]1[C@H](O)C[C@@H]1[C@@]3(C)CC[C@H](O)C(C)(C)[C@@H]3[C@@H](O[C@@H]3O[C@H](CO)[C@@H](O)[C@H](O)[C@H]3O[C@@H]3O[C@@H](C)[C@H](O)[C@@H](O)[C@H]3O)C[C@]12C", "note": "[Example 1, ginsenoside Rg4]", "values": [{"measurement": "number of 3D spheroids, increase compared to ginsenoside Rg2 of Comparative Example 1", "setting": "[1]; FIG. 3C", "value": "two to three folds"}, {"measurement": "size of 3D spheroids, increase compared to ginsenoside Rg2 of Comparative Example 1", "setting": "[1]; FIG. 3C", "value": "two to three folds"}, {"measurement": "number of 3D spheroids", "setting": "[1]; vs non-treated group", "value": "increase the number and size of 3D spheroids in a concentration-dependent manner"}, {"measurement": "size of 3D spheroids", "setting": "[1]; vs non-treated group", "value": "increase the number and size of 3D spheroids in a concentration-dependent manner"}, {"measurement": "cell viability", "setting": "[2]; 2D (monolayer) cultured cells", "value": "the same cell viability"}, {"measurement": "cell viability", "setting": "[2]; 3D (spheroid) cultured cells", "value": "the same cell viability"}, {"measurement": "mRNA expression level of ALPL", "setting": "ALPL", "value": "increased"}, {"measurement": "mRNA expression level of BMP2", "setting": "BMP2", "value": "increased"}, {"measurement": "mRNA expression level of VCAN", "setting": "VCAN", "value": "increased"}, {"measurement": "mRNA expression level of FGF7", "setting": "FGF7", "value": "increased"}, {"measurement": "mRNA expression level of LEF1", "setting": "LEF1", "value": "two folds or more"}, {"measurement": "mRNA expression level of WNT5A", "setting": "WNT5A", "value": "two folds or more"}, {"measurement": "mRNA expression level of β-catenin", "setting": "β-catenin", "value": "two folds or more"}, {"measurement": "activation of TCF/LEF (luciferase activity)", "setting": "TCF/LEF", "value": "two folds or more"}]}
